# Several values for one entry are separate records, joined by “and”; a condition that tells them apart may be missing. Identical values can stand only once. Entries after “also recorded” stand apart in the source; their conditions may differ.
# T1: B. longum BSH (Bifidobacterium longum, UniProt Q9KK62)
# T1 sequence (Q9KK62 1-317): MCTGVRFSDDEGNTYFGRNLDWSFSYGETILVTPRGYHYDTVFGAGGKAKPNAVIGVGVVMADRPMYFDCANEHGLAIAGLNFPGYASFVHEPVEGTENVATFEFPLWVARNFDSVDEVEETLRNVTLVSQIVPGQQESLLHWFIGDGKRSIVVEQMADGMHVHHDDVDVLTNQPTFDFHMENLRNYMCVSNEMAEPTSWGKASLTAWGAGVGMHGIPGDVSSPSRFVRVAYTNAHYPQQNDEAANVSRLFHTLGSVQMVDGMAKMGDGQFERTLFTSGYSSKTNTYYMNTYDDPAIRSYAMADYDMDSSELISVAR
# B1: B. longum BSH (Bifidobacterium longum) (protein)
# chain: T1 sequence (Q9KK62 1-317)
# Key:
# [1] = tested on: C. perfingens; type: cell-based, Clostridium perfringens ATCC 13124; details: FIG. 2c, C. perfingens culture; 100 μM inhibitor, 100 μM bile acid pool, 21 h; replicates 1-3
# [2] = tested on: B. vulgatus; experiment: Inhibitor screen in bacteria, B. vulgatus culture; type: cell-based, Bacteroides vulgatus ATCC 8482; details: FIG. 2c, 100 μM inhibitor, 100 μM bile acid pool, 21 h, replicates 1-3
# Experimental: (§1) Bacterial Culturing. All bacterial strains were cultured at 37° C. in Cullen-Haiser Gut (CHG) media (which consists of brain heart infusion media (Bacto™ BHI, BD) supplemented with 1% BBL vitamin K1-hemin solution (BD), 1% trace minerals solution (ATCC), 1% trace vitamins solution (ATCC), 5% fetal bovine serum (Hyclone), 1 g/L cellubiose, 1 g/L maltose, and 1 g/L fructose) or BHI^+ (Bacto™ BHI, BD, supplemented with 5 mg/L hemin, and 2.5 uL/L Vitamin K1). All strains were grown under anaerobic conditions in a anaerobic chamber (Coy Lab Products Airlock) with a gas mix of 5% hydrogen and 20% carbon dioxide nitrogen. Escherichia coli was grown aerobically at 37° C. in LB medium supplemented with ampicillin to select for the pET21b plasmid.
# (§2) Inhibitor Screen in Bacteria. Bacterial cultures were diluted to OD600 of 0.1 in 4 mL BHI^+, containing 100 μM taurine conjugated bile acid pool 100 μM inhibitors. […] After 21 h, serial dilutions were plated on BHI^+ agar to determine cell viability (CFU/mL). […] The cultures were spun down in a centrifuge at 2,500 g for 5 mins to obtain better separation. The organic layer was then removed and the aqueous layer was extracted again using 2 mL of ethyl acetate.
# [3] = molecular target: T1, B. longum BSH; experiment: Inhibitor screen using rBSH, B. longum BSH (UPLC-MS % deconjugation); type: biochemical, Bifidobacterium longum SBT2928; set-up: His6 (C); made in house; host or cells: Escherichia coli (as for the B. theta enzyme); details: 100 μM inhibitor; 2 h, 5 h and 21 h timepoints
# Experimental: B. longum rBSH. Recombinant BSH from B. longum SBT2928 was expressed and purified as above, except 0.25 mM IPTG was used for protein expression and 1 mM TCEP for protein purification.
# Inhibitor Screen Using rBSHs.
# [4] = tested on: three Gram negative and three Gram positive strains of human gut bacteria; experiment: Growth (OD600) and cell viability (CFU/mL) of the six gut bacterial strains; details: 100 μM inhibitor
# [5] = molecular target: B. theta BSH (Bacteroides thetaiotaomicron, UniProt Q8A600); experiment: Inhibitor screen using rBSH, B. theta BSH (UPLC-MS % deconjugation); details: 100 μM inhibitor, 30 min preincubation, monitored over 21 hours
# [6] = tested on: B. fragilis; experiment: Inhibitor screen in bacteria, B. fragilis culture; type: cell-based, Bacteroides fragilis ATCC 25285; details: FIG. 2c, 100 μM inhibitor, 100 μM bile acid pool, 21 h, replicates 1-3
# Experimental: as §1, §2
# [7] = tested on: B. theta; experiment: Inhibitor screen in bacteria, B. theta culture; type: cell-based, Bacteroides thetaiotaomicron VPI-5482; details: FIG. 2c, 100 μM inhibitor, 21 h, replicates 1-3
# Experimental: as §1, §2
# [8] = tested on: three Gram negative and three Gram positive strains of human gut bacteria; experiment: BSH inhibition in growing cultures of six gut bacterial strains (overall statements); type: cell-based; details: 100 μM inhibitor, 100 μM conjugated bile acid mixture
# [9] = tested on: BSH activity in conventional mouse feces; experiment: Screen of inhibitors in conventional mouse feces; type: biochemical
# Experimental: Screen of Inhibitors in Conventional Mouse Feces. […] The tubes were then frozen in dry ice for 5 mins and upon thawing were diluted with an equal volume of methanol. […] The supernatant was removed into a clean eppendorf tube and centrifuged again. […] The concentration of product detected from these assays was reported directly.
# [10] = tested on: L. plantarum; experiment: Inhibitor screen in bacteria, L. plantarum culture; type: cell-based, Lactobacillus plantarum WCFS1
# [11] = tested on: B. adolescentis; experiment: Inhibitor screen in bacteria, B. adolescentis culture; type: cell-based, Bifidobacterium adolescentis L2-32; details: FIG. 2c, 100 μM inhibitor, 100 μM bile acid pool, 21 h, replicates 1-3
# [12] = tested on: B. theta BSH KO strain; experiment: Incubation with BSH-deleted B. theta strain; details: 100 μM inhibitor
# [13] = substrate: C[C@H](CCC(=O)NCCS(=O)(=O)O)[C@H]1CC[C@H]2[C@@H]3[C@@H](O)C[C@@H]4C[C@H](O)CC[C@]4(C)[C@H]3CC[C@]12C; experiment: purified protein, by the assay type
# [14] = substrate: C[C@H](CCC(=O)NCCS(=O)(=O)O)[C@H]1CC[C@H]2[C@@H]3CC[C@@H]4C[C@H](O)CC[C@]4(C)[C@H]3C[C@H](O)[C@]12C; experiment: purified protein, by the assay type
# [15] = substrate: C[C@H](CCC(=O)NCCS(=O)(=O)O)[C@H]1CC[C@H]2[C@@H]3[C@H](O)C[C@@H]4C[C@H](O)CC[C@]4(C)[C@H]3C[C@H](O)[C@]12C; experiment: purified protein, by the assay type; details: other: Table 3; substrate of B. longum BSH; mean ± SEM, n = 3; pH 7.5; 37.0 °C
# [16] = FIG. 2c, L. plantarum culture, 100 μM inhibitor, 100 μM bile acid pool, 21 h, replicates 1-3
# [17] = other: Table 1, substrate of B. longum BSH, PBS pH 7.5, 37° C.
# [18] = other: Table 3, substrate of B. longum BSH, mean ± SEM, n = 3, pH 7.5, 37.0 °C
molecule,measurement,setting,value
"O=C(/C=C/c1ccc(O)c(O)c1)OCCc1ccccc1 [CAPE, caffeic acid phenethyl ester, reference compound]",% deconjugation of TCA,[1],100.00%
same,% deconjugation of TDCA,[1],99.71% and 99.30% and 99.38%
same,% deconjugation of TUDCA,[1],98.92% and 98.62% and 98.71%
same,% deconjugation of TβMCA,[1],100.00%
same,% deconjugation of TCA,[2],1.46% and 1.06% and 0.00%
same,% deconjugation of TDCA,[2],5.47% and 3.03% and 1.28%
same,% deconjugation of TUDCA,[2],82.37% and 94.25% and 87.91%
same,% deconjugation of TβMCA,[2],88.92% and 78.15% and 71.86%
same,inhibition of B. longum BSH (in words),[3],ineffective
same,"effect on bacterial cell viability (CFU/mL, plated at 21 h)",[4],decreased the cell viability of the Gram negative strains tested; also recorded: inhibited the cell viability of all three Gram negative bacterial strains tested
same,effect on bacterial growth (OD600 at 24 hours),[4],inhibited the growth of the Gram positive strains tested; also recorded: inhibited the growth of all three Gram negative bacterial strains tested; also recorded: significantly inhibits the growth of the strains of Gram negative gut bacteria tested
same,inhibition of B. theta BSH (in words),[5],only moderate inhibition
same,% deconjugation of TCA,[6],88.33% and 85.35% and 84.93%
same,% deconjugation of TDCA,[6],98.95% and 98.93% and 99.13%
same,% deconjugation of TUDCA,[6],98.66% and 98.65% and 99.13%
same,% deconjugation of TβMCA,[6],98.64% and 98.42% and 99.12%
same,% deconjugation of TDCA,[7]; 100 μM bile acid pool,2.06% and 0.90% and 0.81%
same,% deconjugation of TUDCA,[7]; 100 μM bile acid pool,2.31% and 5.36% and 2.32%
same,% deconjugation of TβMCA,[7]; 100 μM bile acid pool,0.64% and 0.28% and 0.16%
same,% deconjugation of TCA,[7]; 100 μM taurine conjugated bile acid pool,0.42% and 0.72% and 0.52%
same,deconjugation / BSH inhibition in cultures of the six bacterial strains (in words),[8],no inhibition of deconjugation was observed over the course of 21 hours in five out of the six bacterial strains; also recorded: neither riboflavin nor CAPE displayed significant inhibitory activity against any of the Gram negative strains; also recorded: No BSH inhibition in five out of the six bacterial strains
same,BSH activity in resuspended conventional mouse feces (in words),"[9]; 20 μM inhibitor, 30 min, then GCDCA-d4 100 μM, 18 hours",minimal inhibitory activity; also recorded: no inhibition of BSH activity in feces
same,deconjugation in resuspended mouse feces (in words),[9]; either 20 μM or 100 μM,did not noticeably reduce deconjugation
same,inhibition of deconjugation in L. plantarum (in words),[10]; 100 μM CAPE,inhibit deconjugation in L. plantarum
same,% deconjugation of TCA,[10]; [16],10.67% and 33.19% and 53.29%
same,% deconjugation of TDCA,[10]; [16],47.57% and 82.98% and 93.57%
same,% deconjugation of TUDCA,[10]; [16],6.80% and 1.73% and 3.54%
same,% deconjugation of TβMCA,[10]; [16],0.06% and 0.59% and 0.95%
same,% deconjugation of TCA,[11],100.00%
same,% deconjugation of TDCA,[11],99.85% and 100.00% and 99.71%
same,% deconjugation of TUDCA,[11],99.43% (2×) and 100.00%
same,% deconjugation of TβMCA,[11],100.00%
same,bactericidal effect on BSH-deleted B. theta (CFUs after 24 h),[12],significantly affect the growth
B1,Km,[13]; [17],4.14 mM
same,Km,[13]; [18],4.1 ± 2.5 mM
same,Km,[14]; [17],2.28 mM
same,Km,[14]; [18],2.3 ± 0.3 mM
same,Km,[15],8.3 ± 2.5 mM
same,kcat,[15],0.115 s⁻¹
same,kcat/Km,[15],13.3 M⁻¹ s⁻¹

# — patent publication US12577273B2, “Small molecule modulators of gut bacterial bile acid metabolism” (priority 2019, dated 2026)
